Data set [1] is described as follows: LD-50 mice i.p. (acute toxicity). As to conditions: mouse, in vivo, ip.
Data set [2] has as its system cramping induced by phenylbenzoquinone. The data set can be described thus: antalgic activity: percentage inhibition of cramping induced by phenylbenzoquinone, mice i.p. Type of data set: in vivo. As to conditions: dose one tenth of LD-50 mice i.p., over 5 minutes, phenylbenzoquinone 0.02% i.p. The protocol: The antalgic activity of the compounds of formula I was determined by measuring the cramping induced by phenylbenzoquinone, as described by Siegmund et al, Proc. Soc. Exp. Biol. Med. ([…]) 95, 729. A painful reaction, characterized by twisting movements and elongation of the abdomen, with scraping of the rear paws, was introduced by the intraperitoneal administration of a 0.02% w/v solution of phenyl-benzoquinone in […] at a rate of 0.5 ml/20 g body weight. The activity was measured by the percentage inhibition in the number of painful symptons over 5 minutes.

Data set [3] in a line: clinical double blind test as an antalgic agent. The class given is in vivo. As to conditions: 41 patients, 400 mg per day, tablets, 20 days. On the procedure: The compound of Example 1 has been tested clinically as an antalgic agent on 41 patients. A double blind test was carried out, using placebos and a dose of 400 mg per day of the active compound, administered as tablets.

The test system of another data set is antalgic activity. As to the kind of experiment: ED50 mice per os antalgic activity. The following applies: Mus musculus, po. Type of data set: in vivo.
The next data set can be described thus: LD0 rat (acute toxicity). The class given is in vivo.
A short description of data set [4]: kidney troubles / tolerance. Type of data set: in vivo. The following applies: footnote (a), in connection with ED50 mice per os.
A short description of data set [5]: LD50 mice per os (acute toxicity). As to conditions: mouse, in vivo, po.

Take `Cc1ccc(C(=O)c2cccc(OCC(=O)O)c2)cc1` [Example 12]: in data set [1], the 50% lethal dose (LD50) (as a rule, the dose expected to kill half of the subjects tested) worked out at 450 mg/kg. Moreover, the “Percentage of diminution of cramping, Tested compound” value (“Percentage of diminution of cramping” for short) in data set [2] came to 92%.
As to `CC(Oc1cccc(C(=O)c2ccc(Cl)cc2Cl)c1)C(=O)O` (stereo not drawn) [Example 8], in data set [1], the LD50 amounted to 800 mg/kg. In addition, in data set [2], the “Percentage of diminution of cramping” value came out at 100%.
Consider `CC(C)(Oc1cccc(C(=O)c2ccccc2)c1)C(=O)O` [Example 1, 2-(3-benzoyl)-phenoxy-2-methylpropionic acid], for which, in data set [3] (double blind), the “tolerance of the product” value is “excellent”. Also, the “activity good, cases” value in data set [3] (double blind, patients who had received the active compound) was determined as 80%. Moreover, the relief of symptoms result in data set [3] (patients who had received the active compound) is listed as “the symptoms had been relieved”. In the data set on antalgic activity, the ED50 (in general, the dose at which the effect has come halfway, by size or by number of responders) worked out at 35 mg/kg. The molecule also showed a KD0 rat i.p. in the data set “LD0 rat (acute toxicity)” (i.p.) of 540 mg/kg. The “LD0 rat per os” value in “LD0 rat (acute toxicity)” (per os) was “higher than 1600 mg/kg”. Moreover, the kidney troubles result in data set [4] is given as “without kidney troubles”. Besides, the LD50 in data set [1] and in data set [5] was 350 mg/kg throughout. In data set [2], the “Percentage of diminution of cramping” value is 95%.
Take `CC(C)(Oc1cccc(C(=O)c2cccc(C(F)(F)F)c2)c1)C(=O)O` [Example 3]: the LD50 in data set [1] turned out to be 300 mg/kg. Besides, in data set [2], the “Percentage of diminution of cramping” value is on record as 43%.
The molecule `Cc1ccc(C(=O)c2cccc(OC(C)(C)C(=O)O)c2)cc1` [Example 4] registered an LD50 in data set [1] of 400 mg/kg. The “Percentage of diminution of cramping” value in data set [2] worked out at 66%.
For `Cc1ccc(C(=O)c2cccc(OC(C)(C)C(=O)O)c2)c(C)c1` [Example 10], the LD50 in data set [1] was 600 mg/kg. For the same molecule, the “Percentage of diminution of cramping” value in data set [2] is reported as 69%.
Consider `O=C(OCC(O)CO)c1ccccc1Nc1ccnc2cc(Cl)ccc12` (stereo not drawn) [Glaphenine, 2,3-dihdroxypropyl N-(7-chloro-4-quinolyl)-anthranilate, reference compound], for which the ED50 in the data set on antalgic activity was determined as 25 mg/kg. The kidney troubles entry in data set [4] was “induces kidney troubles”.
Molecule `Cc1ccccc1C(=O)c1cccc(OC(C)(C)C(=O)O)c1` [Example 11] yielded an LD50 in data set [1] of 600 mg/kg. For the same molecule, in data set [2], the “Percentage of diminution of cramping” value is recorded as 70%.
Turning to `Cc1ccc(C(=O)c2cccc(OC(C)C(=O)O)c2)cc1` (stereo not drawn) [Example 13], the LD50 in data set [1] came to 700 mg/kg. In data set [2], the “Percentage of diminution of cramping” value worked out at 98%.
In data set [1], `O=C(O)COc1cccc(C(=O)c2ccc(Cl)cc2Cl)c1` [Example 9] displayed an LD50 of 350 mg/kg. The “Percentage of diminution of cramping” value in data set [2] is recorded as 94%.
`CC(Oc1cccc(C(=O)c2ccccc2)c1)C(=O)O` (stereo not drawn) [Example 6] displayed an LD50 in data set [1] of 770 mg/kg. For the same molecule, the “Percentage of diminution of cramping” value in data set [2] was 100%.
In data set [1], `Cc1ccc(C(=O)c2cccc(OC(C)(C)C(=O)O)c2)cc1C` [Example 5] gave an LD50 of 450 mg/kg. Besides, the “Percentage of diminution of cramping” value in data set [2] is 100%.
`COc1ccc(C(=O)c2cccc(OC(C)(C)C(=O)O)c2)cc1` [Example 2] returned an LD50 in data set [1] of 300 mg/kg. Also, the “Percentage of diminution of cramping” value in data set [2] is given as 97%.
In turn, `CC(Oc1cccc(C(=O)c2cccc(C(F)(F)F)c2)c1)C(=O)O` (stereo not drawn) [Example 7] yielded an LD50 in data set [1] of 350 mg/kg. Further, the “Percentage of diminution of cramping” value in data set [2] is reported as 61%.

Source of the values: patent publication US4242358A, “Method of treatment of algiae” (Societe de Recherches Industrielles (Sori), priority 1979, dated 1980).
